Experiments:
K562 cells = assay: K562 cell proliferation assay (CellTiter-Glo); type: cell-based; details: Homo sapiens, K562, 72 h, CellTiter-Glo viability, read-out: Cell Line (IC50, nM) K562
Outline: (§1)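 Cells in IMDM/10% FBS seeded at 2,000 (K562) or 1,500 (HL60) per well, exposed to serially diluted compounds for 72 h at 37 °C, 5% CO2. Viability by CellTiter-Glo luminescence, normalized between DMSO (high) and cell-free media (low) controls.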

HL60 cells = assay: HL60 cell proliferation assay (CellTiter-Glo); type: cell-based; details: Homo sapiens, HL-60, 72 h, CellTiter-Glo viability, read-out: Cell Line (IC50, nM) HL60
Outline: as §1

ABL1 = target: T1, ABL1 (Homo sapiens, UniProt P00519); assay: Luminescence-based ABL kinase assay (ADP-Glo, 300 μM ATP); type: biochemical
T1 construct: purchased Carna Biosciences
Outline: (§2)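 ABL1 (3.325 nM in the enzyme solution) was preincubated with compound for 30 min at RT in HEPES pH 7.5 buffer with MgCl2, EGTA, DTT, BSA and Brij-35. Adding Peptide 2 and ATP (6 μM and 1.2 mM in the start solution) began a 90 min RT reaction. ADP-Glo luminescence gave % activity and IC50.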

ABL1 (T315I) = ABL1 (T315I) (Homo sapiens, UniProt P00519, T315I); assay: Luminescence-based ABL kinase assay (ADP-Glo, 300 μM ATP), T315I mutant; type: biochemical
Outline: as §2

IC50 (K562 cells) [nM]	IC50 (HL60 cells) [nM]	IC50 (ABL1) [nM]	IC50 (ABL1 (T315I)) [nM]	Structure (SMILES)
129	> 10000	14.9	25.7	COc1cc(F)ccc1-c1n[nH]c2nc(NC(=O)[C@@H]3C[C@@H]3F)ccc12 [Compound 99, (1S,2S)-2-fluoro-N-[3-(4-fluoro-2-methoxyphenyl)-1H-pyrazolo[3,4-b]pyridin-6-yl]cyclopropane-1-carboxamide]
94.2	> 10000	16.4	15.3	[2H]C([2H])([2H])Oc1ccccc1-c1n[nH]c2nc(NC(=O)[C@@H]3C[C@@H]3F)ccc12 [Compound 101, (1S,2S)-2-fluoro-N-(3-(2-(methoxy-d3)phenyl)-1H-pyrazolo[3,4-b]pyridin-6-yl)cyclopropane-1-carboxamide]
48	> 10000	12.5	17.8	COc1ncnc(OC)c1-c1c[nH]c2nc(NC(=O)[C@@H]3C[C@@H]3F)ccc12 [Compound 102, (1S,2S)—N-[3-(4,6-dimethoxypyrimidin-5-yl)-1H-pyrrolo[2,3-b]pyridin-6-yl]-2-fluorocyclopropane-1-carboxamide]
751	> 10000	99.2	32.5	CCNC(=O)Nc1ccc2c(-c3ccccc3OC)c[nH]c2n1 [Compound 103, 3-ethyl-1-[3-(2-methoxyphenyl)-1H-pyrrolo[2,3-b]pyridin-6-yl]urea]
278	> 10000	39	7.08	CCN1CCN(CCNC(=O)Nc2ccc3c(-c4ccccc4OC)c[nH]c3n2)CC1 [Compound 109, 1-[2-(4-ethylpiperazin-1-yl)ethyl]-3-[3-(2-methoxyphenyl)-1H-pyrrolo[2,3-b]pyridin-6-yl]urea]
382	> 10000	74.8	18.2	COc1ccccc1-c1c[nH]c2nc(NC(=O)NCCC3CCN(C4COC4)CC3)ccc12 [Compound 110, 3-[3-(2-methoxyphenyl)-1H-pyrrolo[2,3-b]pyridin-6-yl]-1-[2-[1-(oxetan-3-yl)piperidin-4-yl]ethyl]urea]
321	> 10000	14.3	151	COc1cc2ncnn2cc1-c1c[nH]c2nc(NC(=O)[C@@H]3C[C@@H]3F)ccc12 [Compound 111, (1S,2S)-2-fluoro-N-(3-(7-methoxy-[1,2,4]triazolo[1,5-a]pyridin-6-yl)-1H-pyrrolo[2,3-b]pyridin-6-yl)cyclopropane-1-carboxamide]
1860	> 10000	271	157	COc1nccc(C)c1-c1n[nH]c2nc(NC(=O)[C@@H]3C[C@@H]3F)ccc12 [Compound 112, (1S,2S)-2-fluoro-N-[3-(2-methoxy-4-methylpyridin-3-yl)-1H-pyrazolo[3,4-b]pyridin-6-yl]cyclopropane-1-carboxamide]
174	> 10000	20.9	15.9	COc1nccc(C)c1-c1c[nH]c2nc(NC(=O)[C@@H]3C[C@@H]3F)ccc12 [Compound 113, (1S,2S)-2-fluoro-N-[3-(2-methoxy-4-methylpyridin-3-yl)-1H-pyrrolo[2,3-b]pyridin-6-yl]cyclopropane-1-carboxamide]
382	> 10000	124	151	COc1c(-c2c[nH]c3nc(NC(=O)[C@@H]4C[C@@H]4F)ccc23)ccn2ncnc12 [Compound 115, (1S,2S)-2-fluoro-N-(3-[8-methoxy-[1,2,4]triazolo[1,5-a]pyridin-7-yl]-1H-pyrrolo[2,3-b]pyridin-6-yl)cyclopropane-1-carboxamide]
24.4	> 10000	3.73	1.48	COc1cccc(OC)c1-c1c[nH]c2nc(NC(=O)[C@@H]3C[C@@H]3F)ccc12 [Compound 118, (1S,2S)—N-[3-(2,6-dimethoxyphenyl)-1H-pyrrolo[2,3-b]pyridin-6-yl]-2-fluorocyclopropane-1-carboxamide]
32.2	> 10000	4.67	2.57	COc1ccc(F)c(OC)c1-c1c[nH]c2nc(NC(=O)[C@@H]3C[C@@H]3F)ccc12 [Compound 119, (1S,2S)-2-fluoro-N-[3-(3-fluoro-2,6-dimethoxyphenyl)-1H-pyrrolo[2,3-b]pyridin-6-yl]cyclopropane-1-carboxamide]
365	> 10000	31.8	5.98	COc1ccccc1-c1c[nH]c2nc(NC(=O)NCCN3CCNCC3)ccc12 [Compound 121, 3-[3-(2-methoxyphenyl)-1H-pyrrolo[2,3-b]pyridin-6-yl]-1-[2-(piperazin-1-yl)ethyl]urea]
359	> 10000	317	30.6	COc1ccccc1-c1c[nH]c2nc(NC(=O)NCCOCCN(C)C)ccc12 [Compound 124, 3-[2-[2-(dimethylamino)ethoxy]ethyl]-1-[3-(2-methoxyphenyl)-1H-pyrrolo[2,3-b]pyridin-6-yl]urea]
104	> 10000	22.2	39.5	COc1ncc(F)c(OC)c1-c1c[nH]c2nc(NC(=O)[C@H]3C[C@H]3F)ccc12 [Compound 125, (1R,2R)-2-fluoro-N-[3-(5-fluoro-2,4-dimethoxypyridin-3-yl)-1H-pyrrolo[2,3-b]pyridin-6-yl]cyclopropane-1-carboxamide]
2010	> 10000	2580	3860	O=C(Nc1ccc2c(-c3cccnc3OCC(F)(F)F)c[nH]c2n1)[C@@H]1C[C@@H]1F [Compound 126, (1S,2S)-2-fluoro-N-(3-(2-(2,2,2-trifluoroethoxy)pyridin-3-yl)-1H-pyrrolo[2,3-b]pyridin-6-yl)cyclopropane-1-carboxamide]
100	> 10000	22.1	0.745	O=C(Nc1ccc2c(-c3c(F)cccc3OC3CC3)c[nH]c2n1)[C@@H]1C[C@@H]1F [Compound 127, (1S,2S)—N-[3-(2-cyclopropoxy-6-fluorophenyl)-1H-pyrrolo[2,3-b]pyridin-6-yl]-2-fluorocyclopropane-1-carboxamide]
169	> 10000	67	33.7	CNCCCNC(=O)Nc1ccc2c(-c3c(OC)cccc3OC)c[nH]c2n1 [Compound 130, 1-[3-(2,6-dimethoxyphenyl)-1H-pyrrolo[2,3-b]pyridin-6-yl]-3-[3-(methylamino)propyl]urea]
234	> 10000	143	97.5	COc1cccc(OC)c1-c1c[nH]c2nc(NC(=O)NCCN(C)C)ccc12 [Compound 132, 1-[3-(2,6-dimethoxyphenyl)-1H-pyrrolo[2,3-b]pyridin-6-yl]-3-[2-(dimethylamino)ethyl]urea]
333	> 10000	27.4	54.5	O=C(NCCN1CCNCC1)Nc1ccc2c(-c3ccccc3OC3CC3)n[nH]c2n1 [Compound 136, 3-[3-(2-cyclopropoxyphenyl)-1H-pyrazolo[3,4-b]pyridin-6-yl]-1-[2-(piperazin-1-yl)ethyl]urea]
733	> 10000	36	40.6	COc1ccnc(OC)c1-c1c[nH]c2nc(NC(=O)NCCN3CCNCC3)ccc12 [Compound 137, 3-[3-(2,4-dimethoxypyridin-3-yl)-1H-pyrrolo[2,3-b]pyridin-6-yl]-1-[2-(piperazin-1-yl)ethyl]urea]
527	> 10000	51.2	140	COc1ncnc(OC)c1-c1c[nH]c2nc(NC(=O)NCCN3CCNCC3)ccc12 [Compound 138, 3-[3-(4,6-dimethoxypyrimidin-5-yl)-1H-pyrrolo[2,3-b]pyridin-6-yl]-1-[2-(piperazin-1-yl)ethyl]urea]
1380	> 10000	18.6	16.8	COc1cc2ncsc2cc1-c1c[nH]c2nc(NC(=O)NCCN3CCNCC3)ccc12 [Compound 139, 3-[3-(5-methoxy-1,3-benzothiazol-6-yl)-1H-pyrrolo[2,3-b]pyridin-6-yl]-1-[2-(piperazin-1-yl)ethyl]urea; bis(formic acid)]
34.5	> 10000	14.6	14.3	COc1nc(C)nc(OC)c1-c1c[nH]c2nc(NC(=O)[C@@H]3C[C@@H]3F)ccc12 [Compound 142, (1S,2S)—N-(3-(4,6-dimethoxy-2-methylpyrimidin-5-yl)-1H-pyrrolo[2,3-b]pyridin-6-yl)-2-fluorocyclopropane-1-carboxamide]
8.67	> 10000	4.65	1.37	COc1ncnc(OC2CC2)c1-c1c[nH]c2nc(NC(=O)[C@@H]3C[C@@H]3F)ccc12 [Compound 153, (1S,2S)—N-[3-(4-cyclopropoxy-6-methoxypyrimidin-5-yl)-1H-pyrrolo[2,3-b]pyridin-6-yl]-2-fluorocyclopropane-1-carboxamide]
30.8	> 10000	6.71	8.81	COc1nccc(OC2CC2)c1-c1c[nH]c2nc(NC(=O)[C@@H]3C[C@H]3OCCN(C)C)ccc12 [Compound 253]

Reference: patent US20240043420A1, “7-AZAINDOLE COMPOUNDS FOR INHIBITION OF BCR-ABL TYROSINE KINASES” (EnLiven Therapeutics, Inc., priority 2020, published 2024)
